In ChEMBL document CHEMBL4017527, “Are We There Yet? Applying Thermodynamic and Kinetic Profiling on Embryonic Ectoderm Development (EED) Hit-to-Lead Program” (J Med Chem, 2017):

Key:
Polycomb protein EED [1] = molecular target: T1, Polycomb protein EED (Homo sapiens, UniProt O75530); assay: Binding affinity to GST tagged EED (unknown origin) after 1 hr by OG(488) probe based TR-FRET assay
Polycomb protein EED [2] = molecular target: T1, Polycomb protein EED; assay: Binding affinity to His tagged human EED (77 to 441 residues) expressed in Escherichia coli BL21(DE3)-T1R by ITC method; details: read-out: Kd(app)
Polycomb protein EED [3] = molecular target: T1, Polycomb protein EED; assay: Binding affinity to biotin labelled human EED (78 to 441 residues) by SPR assay

T1 sequence (O75530 whole entry, the tested form may be a part): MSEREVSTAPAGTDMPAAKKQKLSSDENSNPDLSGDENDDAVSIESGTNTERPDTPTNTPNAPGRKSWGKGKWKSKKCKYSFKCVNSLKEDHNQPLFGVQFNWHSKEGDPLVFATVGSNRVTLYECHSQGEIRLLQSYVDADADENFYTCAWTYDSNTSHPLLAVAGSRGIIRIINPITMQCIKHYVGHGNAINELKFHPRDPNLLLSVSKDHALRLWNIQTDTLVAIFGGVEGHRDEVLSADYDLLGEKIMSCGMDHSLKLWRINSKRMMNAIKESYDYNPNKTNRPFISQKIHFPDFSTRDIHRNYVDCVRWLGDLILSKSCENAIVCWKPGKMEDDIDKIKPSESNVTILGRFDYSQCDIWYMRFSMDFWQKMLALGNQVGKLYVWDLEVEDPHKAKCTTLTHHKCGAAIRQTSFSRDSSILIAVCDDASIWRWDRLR

Work on `CC(=O)N1CCN(c2ccc([C@H]3CN(C4CCc5cccc(F)c54)C[C@@H]3N(C)C)cc2)CC1` (some centres not stated) yielded a Ki (Polycomb protein EED [1]) of 0.0007 µM, a Kd (Polycomb protein EED [2]) of 2.1 µM and a Kd (Polycomb protein EED [3]) of 0.004 µM.

For `CN(C)c1cc(N2CCc3ccccc3C2)ccn1`, the Ki (Polycomb protein EED [1]) was 0.68 µM and the Kd (Polycomb protein EED [2]) was 2.5 µM.

`CN(C)[C@@H]1CN(Cc2c(F)cccc2Br)C[C@H]1c1cn(C)c2ccccc12` showed a Ki (Polycomb protein EED [1]) of 0.08 µM, a Kd (Polycomb protein EED [2]) of 0.37 µM and a Kd (Polycomb protein EED [3]) of 3.1 µM.

In the case of `CC(=O)N1CCN(c2ccc([C@H]3CN([C@@H]4CCc5cccc(F)c54)C[C@@H]3N(C)C)cc2)CC1`, the Ki (Polycomb protein EED [1]) is reported as 0.003 µM, the Kd (Polycomb protein EED [2]) is reported as 1.14 µM and the Kd (Polycomb protein EED [3]) is reported as 0.1 µM.

Work on `Cc1cccc(F)c1CN1C[C@H](c2ccc(S(C)(=O)=O)cc2)[C@@H](N(C)C)C1` yielded a Ki (Polycomb protein EED [1]) of 0.01 µM, a Kd (Polycomb protein EED [2]) of 0.03 µM and a Kd (Polycomb protein EED [3]) of 0.14 µM.

Work on `COc1ccccc1N1CCN(C(=O)c2ccccc2S(C)(=O)=O)CC1` yielded a Ki (Polycomb protein EED [1]) of 1.5 µM and a Kd (Polycomb protein EED [3]) of 13.4 µM.

In the case of `CN(C)[C@H]1CN(Cc2c(F)cccc2Br)C[C@@H]1c1cn(C)c2ccccc12`, the Ki (Polycomb protein EED [1]) is reported as 0.01 to 0.02 µM, the Kd (Polycomb protein EED [2]) is reported as 0.09 µM and the Kd (Polycomb protein EED [3]) is reported as 0.15 to 0.31 µM.

`CC(=O)N1CCN(c2ccc([C@@H]3CN([C@@H]4CCc5cccc(F)c54)C[C@H]3N(C)C)cc2)CC1` was tested, and the Ki (Polycomb protein EED [1]) was 0.018 µM, the Kd (Polycomb protein EED [2]) was 0.11 µM and the Kd (Polycomb protein EED [3]) was 0.2 µM.

`COc1ccc([C@H]2CN(Cc3c(C)cccc3F)C[C@@H]2N(C)C)cc1OC` gave a Ki (Polycomb protein EED [1]) of 0.012 µM and a Kd (Polycomb protein EED [3]) of 0.21 µM.

In the case of `COc1ccc([C@H]2CN(Cc3c(F)cccc3Br)C[C@@H]2N(C)C)cc1OC`, the Ki (Polycomb protein EED [1]) is reported as 0.018 µM and the Kd (Polycomb protein EED [3]) is reported as 0.3 µM.

`CN(C)[C@H]1CN([C@H]2CCc3cccc(F)c32)C[C@@H]1c1cn(C)c2ccccc12` was tested, and the Kd (Polycomb protein EED [2]) was 0.01 µM.

`CC(=O)N1CCN(c2ccc([C@H]3CN(Cc4c(C)cccc4F)C[C@@H]3N(C)C)cc2)CC1` gave a Ki (Polycomb protein EED [1]) of 0.003 µM and a Kd (Polycomb protein EED [3]) of 0.02 µM.

`CC(=O)N1CCN(c2ccc([C@H]3CN([C@H]4CCc5cccc(F)c54)C[C@@H]3N(C)C)cc2)CC1` showed a Ki (Polycomb protein EED [1]) of 0.0003 µM, a Kd (Polycomb protein EED [2]) of 0.01 µM and a Kd (Polycomb protein EED [3]) of 0.001 µM.

`CN(C)[C@H]1CN(Cc2c(F)cccc2Br)C[C@@H]1c1ccccc1` was tested, and the Ki (Polycomb protein EED [1]) was 0.11 µM and the Kd (Polycomb protein EED [3]) was 4.8 µM.

Compound `Cc1cccc(F)c1CN1C[C@H](c2cn(C)c3ccccc23)[C@@H](N(C)C)C1` has a Kd (Polycomb protein EED [2]) of 0.006 µM.

For `CC(=O)N1CCN(c2ccc([C@@H]3CN([C@H]4CCc5cccc(F)c54)C[C@H]3N(C)C)cc2)CC1`, the Ki (Polycomb protein EED [1]) was 0.042 µM, the Kd (Polycomb protein EED [2]) was 2.2 µM and the Kd (Polycomb protein EED [3]) was 0.29 µM.

`CN(C)[C@H]1CN(Cc2c(F)cccc2Br)C[C@@H]1c1ccccn1` showed a Ki (Polycomb protein EED [1]) of 0.45 µM and a Kd (Polycomb protein EED [3]) of 9.8 µM.

Compound `Cc1cccc(F)c1CN1C[C@@H](N(C)C)[C@H](c2ccc(S(C)(=O)=O)cc2)C1` has a Ki (Polycomb protein EED [1]) of 0.29 µM, a Kd (Polycomb protein EED [2]) of 0.94 µM and a Kd (Polycomb protein EED [3]) of 1.4 µM.

In the case of `CN(C)[C@H]1CN(Cc2c(F)cc(O)cc2Br)C[C@@H]1c1cn(C)c2ccccc12`, the Ki (Polycomb protein EED [1]) is reported as 0.008 µM and the Kd (Polycomb protein EED [3]) is reported as 0.061 µM.

With `COc1ccc([C@H]2CN(C3CCc4cccc(F)c43)C[C@@H]2N(C)C)cc1OC` (some centres not stated) the Ki (Polycomb protein EED [1]) was 0.003 µM and the Kd (Polycomb protein EED [3]) was 0.043 µM.

Work on `CN(C)[C@H]1CN(Cc2c(F)cccc2Br)C[C@@H]1c1ccc(O)cc1` yielded a Ki (Polycomb protein EED [1]) of 0.091 µM and a Kd (Polycomb protein EED [3]) of 2.6 µM.

In the case of `c1ccc2c(c1)CCN(c1ccncc1)C2`, the Ki (Polycomb protein EED [1]) is reported as 0.95 µM, the Kd (Polycomb protein EED [2]) is reported as 5.2 µM and the Kd (Polycomb protein EED [3]) is reported as 22 µM.
